# What was measured:
# [1] = test system: HUMAN RSV-A (“LONG” STRAIN); test: RSV-A assay (CPE, ATPlite) in Hep-2 cells; type: cell-based; details: human respiratory syncytial virus, 120 h, MOI 0.1, 5-day incubation
# Method in brief: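 Protection from RSV cytopathic effect read by ATP luminescence (ATPlite) after 5-day culture. Genotype A "Long" virus added at MOI 0.1 to Hep-2 monolayers at 8,000 cells/well, pre-dosed with duplicate 2-fold compound dilutions; controls include infected untreated and uninfected wells. EC50 values binned into ranges.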
# hMPV A2 TN/94-49 = test: HMPV antiviral assay Method 1 (LLC-MK2 cells, ATP-Lite); type: cell-based; details: hMPV A2 TN/94-49, LLC-MK2 cells
# Experimental: In vitro HMPV antiviral activity was evaluated using the clinical isolate A2 strain TN 94-49 (obtained from Dr. John Williams, Vanderbilt University, Tennessee) and […] cells (ATCC #CCL-7), an immortalized kidney epithelial cell line from Macaca mulatta. Compounds were resuspended in dimethyl sulfoxide (DMSO) at 10 mM, serially diluted and added to a 384-well source plate. Subsequently, the compounds were diluted and transferred onto 384-well assay plates using the Echo-650 automated liquid handling system (Beckman Coulter, Indiana). The test compounds were assessed in duplicate at a top concentration of 2 μM followed by 2.5-fold serial dilutions to give a total of 10 concentration points. DMSO control wells were also included on the assay plates and were either infected or not, acting as positive and negative controls. A2 TN 94-49 virus infections were performed in-suspension with LLC-MK2 cells. The cells were washed twice with PBS and removed from the cell-culture flask with 0.25% trypsin-EDTA (Thermo Fisher Scientific, MA). The trypsin-EDTA was inactivated by resuspending in 2% fetal bovine serum (FBS) and OptiMEM (ThermoFisher Scientific, MA) containing 1% penicillin-streptomycin. Cells were pelleted by centrifuging for 5 minutes at 800 rpm, the supernatant was removed, and cells were re-suspended and washed in PBS plus 100 μg/mL CaCl2). This step was performed twice. Cells were then re-suspended in serum-free (SF)-OptiMEM containing 4 μg/mL TPCK-Trypsin (Sigma Aldrich, MO), 1% penicillin-streptomycin (ThermoFisher Scientific, MA) and 100 μg/mL CaCl2). Cells were counted and seeded at a density of 5,000 cells/well, 12.5 μL/well. Virus infections were done at a multiplicity of infection (MOI) of 0.005 with 12.5 μL added per well. Virus infections were performed in infection media which contained SF-OptiMEM, 100 μg/mL CaCl2) and 1% penicillin-streptomycin. HMPV viral stocks are suspended in infection media+5% glycerol, thus an equal volume of infection media+5% glycerol was added to uninfected wells to equalize the final % glycerol across all wells of the assay plate. The final concentration of TPCK-trypsin was 2 μg/mL. The assay plates were incubated at 37° C., 5% CO2 for 7 days. After 7 days incubation, 12.5 μL of ATP-Lite (PerkinElmer, MA) was added to each well and the raw luminescence values were determined using the Envision 2104 (Perkin Elmer, MA). The average of the raw luminescence values for the cells and virus only positive control wells was subtracted from all conditions tested and the percent cell health was determined by dividing these values by the average of the cells only negative control wells. EC50 values were then calculated by non-linear regression using a four-parameter curve logistic equation. The curve fit model employed was XLFit Dose Response One Site Model 200: y=(A+(B/(1+((x/C)^D)))), where A is the minimum y value, B is the maximum y value, C is the log EC50value, and D is the slope factor. Method 2: In Vitro HMPV Antiviral Activity was Evaluated Using the Clinical Isolate A2 Strain TN 94-49
Compound,EC50 [1] [nM],EC50 (hMPV A2 TN/94-49) [nM]
[2H]C([2H])([2H])c1nc2c(OC)cc(C(=O)NC[C@@](O)(c3cccc(F)c3)c3cc4c(c(-c5ccc(F)c(Cl)c5Cl)n3)OC[C@]4(C)C(N)=O)cc2s1 [Example 272],< 200,< 500
COc1cc(C(=O)NC[C@@](O)(c2ccccc2)c2cc3c(c(-c4cc(Cl)c(F)cc4F)n2)OC[C@]3(C)C(N)=O)cc2cc(C)cnc12 [Example 80],< 200,< 500
COc1cc(C(=O)NCC(O)(c2csc(Cl)c2)c2cc3c(c(-c4cc(Cl)c(F)cc4F)n2)OC[C@]3(C)C(N)=O)cc2cn(C3CC3)nc12 (some centres unmarked) [Example 471],< 200,< 500
COc1cc(C(=O)NC[C@@](O)(c2ccccc2)c2cc3c(c(-c4ccc5c(c4Cl)OC(F)(F)O5)n2)OC[C@]3(C)C(N)=O)cc2cn(C3(F)CC3)nc12 [Example 255],< 200,< 500
COc1cc(C(=O)NC[C@@](O)(c2ccccc2)c2cc3c(c(-c4cc(C(F)(F)F)ccc4F)n2)OC[C@]3(C)C(N)=O)cc2cc(C3CC3)nn12 [Example 149],< 200,< 500
COc1cc(C(=O)NC[C@@](O)(c2cc3c(c(-c4ccc(F)cc4O)n2)OC[C@]3(C)C(N)=O)C2CC2)cc2cn(C3CC3)nc12 [Example 64],< 200,> 500
CNC(=O)[C@@]1(C)COc2c1cc([C@@](O)(CNC(=O)c1cc(OC)c3nn(C4CC4)cc3c1)c1ccccc1)nc2-c1cc(Cl)c(F)cc1F [Example 141],< 200,< 500
COc1cc(C(=O)NC[C@](O)(c2cc3c(c(-c4ccc(C)c(C(F)(F)F)c4)n2)OC[C@]3(C)C(N)=O)C2CC2)cc2cn(C3CC3)nc12 [Example 56],< 200,> 500
COc1cc(C(=O)NC[C@](O)(c2cc3c(c(-c4cc(Cl)cc(Cl)c4Cl)n2)OC[C@]3(C)C(N)=O)C2CC2)cc2cn(C3CC3)nc12 [Example 61],< 200,< 500
COc1cc(C(=O)NC[C@@](O)(c2ccsc2)c2cc3c(c(-c4cc(Cl)c(F)cc4F)n2)OC[C@]3(C)C(N)=O)cc2cn(C(F)F)nc12 [Example 174],< 200,< 500
COc1cc(C(=O)NC[C@@](O)(c2cccc(F)c2)c2cc3c(c(-c4cc(Cl)c(F)cc4F)n2)OC[C@]3(C)C(N)=O)cc2cn(C(F)F)nc12 [Example 134],< 200,< 500
[2H]C([2H])([2H])c1nc2c(OC)cc(C(=O)NC[C@@](O)(c3ccccc3)c3cc4c(c(-c5cc(Cl)c(F)cc5F)n3)OC[C@]4(C)C(N)=O)cc2s1 [Example 155],< 200,< 500
Cc1nc2c(OC(F)F)cc(C(=O)NC[C@@](O)(c3cccc(F)c3)c3cc4c(c(-c5cc(Cl)c(F)cc5F)n3)OC[C@]4(C)C(N)=O)cc2cc1Br [Example 135],< 200,> 500
COc1cc(C(=O)NC[C@](O)(c2cc3c(c(-c4cc(Cl)c(Cl)cc4Cl)n2)OC[C@]3(C)C(N)=O)C2CC2)cc2cn(C3CC3)nc12 [Example 62],< 200,> 500
COc1cc(C(=O)NC[C@](O)(c2cc3c(c(-c4ccc(F)c(CO)c4F)n2)OC[C@]3(C)C(N)=O)C2CC2)cc2cn(C3CC3)nc12 [Example 72],< 200,> 500
COc1cc(C(=O)NC[C@@](O)(c2ccccc2)c2cc3c(c(-c4ccc5c(c4Cl)OC(F)(F)O5)n2)OC[C@]3(C)C(N)=O)cc2cn(C3CC3)nc12 [Example 251],< 200,< 500
Cc1nc2ccc(C(=O)NC[C@@](O)(c3ccccc3)c3cc4c(c(-c5cc(Cl)c(F)cc5F)n3)OC[C@]4(C)C(N)=O)cc2o1 [Example 86],< 200,< 500
COc1cc(C(=O)NCC(O)(c2cc3c(c(-c4cc(Cl)c(F)cc4F)n2)OC[C@]3(C)C(N)=O)c2cc3ccccc3s2)cc2cn(C3CC3)nc12 (some centres unmarked) [Example 469],< 200,> 500

# The next lines start with the values.
EC50 [1] [nM],EC50 (hMPV A2 TN/94-49) [nM],Compound
< 200,< 500,[2H]C([2H])([2H])c1nc2c(OC)cc(C(=O)NC[C@@](O)(c3ccccc3)c3cc4c(c(-c5ccc6c(c5)OC(F)(F)O6)n3)OC[C@]4(C)C(N)=O)cc2s1 [Example 9]
< 200,> 500,COc1cc(C(=O)NC[C@](O)(c2cc3c(c(-c4ccc(F)cc4O)n2)OC[C@]3(C)C(N)=O)C2CC2)cc2cn(C3CC3)nc12 [Example 63]
< 200,> 500,[2H]C([2H])([2H])c1nc2c(OC(F)F)cc(C(=O)NC[C@](O)(c3cc4c(c(-c5cc(Cl)c(F)cc5F)n3)OC[C@]4(C)C(N)=O)C3CC3)cc2cc1Br [Example 11]
< 200,< 500,C[C@]1(C(N)=O)COc2c1cc([C@@](O)(CNC(=O)c1cc(OC(F)F)c3nn(C4CC4)cc3c1)C1CC1)nc2-c1ccc(F)c(F)c1Cl [Example 39]
< 200,< 500,COc1cc(C(=O)NC[C@@](O)(c2ccccc2)c2cc3c(c(-c4cc(Cl)c(F)cc4F)n2)OC[C@]3(C)C(N)=O)cc2cn(C(F)F)nc12 [Example 156]
< 200,< 500,[2H]C([2H])([2H])c1nc2c(OC)cc(C(=O)NC[C@](O)(c3cc4c(c(-c5cc(Cl)c(F)cc5F)n3)OC[C@]4(C)C(N)=O)C3CC3)cc2s1 [Example 10]
< 200,> 500,COc1cc(C(=O)NC[C@](O)(c2cc3c(c(-c4cc(Cl)c(F)cc4F)n2)OC[C@]3(C)C(N)=O)c2cnn[nH]2)cc2cn(C3CC3)nc12 [Example 180]
< 200,< 500,COc1cc(C(=O)NC[C@@](O)(c2ccccc2)c2cc3c(c(-c4ccc5c(c4Cl)OC(F)(F)O5)n2)OC[C@]3(C)C(N)=O)cc2cc(C3CC3)nn12 [Example 254]
< 200,< 500,COc1cc(C(=O)NC[C@@](O)(c2ccccc2)c2cc3c(c(-c4ccc(F)c(Cl)c4Cl)n2)OC[C@]3(C)C(N)=O)cc2cn(C3CC3)nc12 [Example 257]
< 200,< 500,COc1cc(C(=O)NC[C@@](O)(c2ccc(F)cc2)c2cc3c(c(-c4cc(Cl)c(F)cc4F)n2)OC[C@]3(C)C(N)=O)cc2cc(C3CC3)nn12 [Example 15]
< 200,> 500,COc1cc(C(=O)NC[C@](O)(c2cc3c(c(-c4cccc(S(F)(F)(F)(F)F)c4)n2)OC[C@]3(C)C(N)=O)C(F)(F)F)cc2cn(C3CC3)nc12 [Example 54]
< 200,> 500,COc1cc(C(=O)NC[C@](O)(c2cc3c(c(-c4ccc5c(c4Cl)OC(F)(F)O5)n2)OC[C@]3(C)C(N)=O)C(F)(F)F)cc2cn(C3CC3)nc12 [Example 52]
< 200,< 500,COc1cc(C(=O)NC[C@@](O)(c2ccsc2)c2cc3c(c(-c4cc(Cl)c(F)cc4F)n2)OC[C@]3(C)C(N)=O)cc2cn(C3CC3)nc12 [Example 173]
< 200,< 500,[2H]c1nc2c(OC)cc(C(=O)NC[C@](O)(c3cc4c(c(-c5cc(F)c(F)cc5F)n3)OC[C@]4(C)C(N)=O)C3CC3)cc2cc1Br [Example 30]
< 200,< 500,[2H]C([2H])([2H])c1nc2c(OC)cc(C(=O)NC[C@@](O)(c3ccc(F)cc3)c3cc4c(c(-c5cc(Cl)c(F)cc5F)n3)OC[C@]4(C)C(N)=O)cc2s1 [Example 16]
< 200,< 500,COc1cc(C(=O)NC[C@@](O)(c2ccc(F)cc2)c2cc3c(c(-c4cc(Cl)c(F)cc4F)n2)OC[C@]3(C)C(N)=O)cc2cc(Cl)c(C)nc12 [Example 17]
